Reference: US20230089267A1, “Compositions and Methods For Reducing Immune Intolerance and Treating Autoimmune Disorders” (Lapix Therapeutics, Inc., priority 2021, published 2023)

Experiments:
Th17 (RORγt) cells = assay: Human PBMCs in Th17 polarizing environment, Foxp3 and RORγt expression; format: cell-based
Method: Total human PBMCs isolated from healthy human volunteers were cultured in vitro in a Thl7 polarizing environment as follows: • Day 0: 2×10^5 cells/well were incubated in a 96 round bottomed-well plate (final volume 200 μl) with (i) anti CD3/CD28 microbead for T-cell activation (1 bead/10 cells), (ii) 10 ng/ml IL-6, 2 ng/ml TGFβ and 10 ng/ml IL-23, and (iii) 10 μg/ml anti-IFNγ and 10 μg/ml anti-IL-4. • Day 4: Each well was split into two wells, and 100 μl of media containing the same cytokine/antibody cocktail used at day 0 was added to each well in the presence of ascending doses of Compound 2 (0, 0.1, 0.3, 1, and 3 ng/ml). • Day 9: Cells were washed and stained for surface staining (CD3, CD4), then viability dye to exclude dead cells. Intranuclear staining was performed after cell fixation and permeabilization for transcription factors Foxp3 and RORγt. Cells were washed and fixed for acquisition by Attune NXT flow cytometer. Data were analyzed by FlowJov10.

[1] = Pilot stability study of oral solution with HPBCD; format: physicochemical
Method: Oral dosing solutions of different concentrations of Compound 2 were compounded ranging from 0.02 mg/ml to 3 mg/ml using a 1:80 ratio of Compound 2:HPBCD. Briefly, the compounding was performed by weighing and dissolving HPBCD in sterile HPLC grade water. Then, Compound 2 was weighed and added to the HPBCD solution in an appropriate container. To enhance dissolution, sonication and magnetic stirring were alternated to obtain a clear solution. Then, the solution was dispensed into PET amber bottles, appropriately labeled and stored under refrigeration until dosing.
A pilot stability study was performed on a 0.7 mg/ml Compound 2 oral solution at three temperatures: −20° C., 4° C., and room temperature (RT).
Samples were also subjected to three freeze-thaw cycles (−20° C. to room temperature). Solutions were evaluated for clarity. […] The potency of these solutions was also determined using an LC/MS assay.

[2] = test system: MOG35-55-induced murine EAE model; assay: MOG35-55-induced murine EAE model versus standards of care (Example 4); format: in vivo, mice
Method: Experimental autoimmune (allergic) encephalomyelitis (EAE) is considered the best non-clinical model of multiple sclerosis (MS). EAE is characterized by immune responses against CNS tissue and can be induced in animals by immunizing them against proteins of the CNS. In the active EAE model, mice are immunized with MOG35-55 peptide emulsified in Complete Freund's Adjuvant (CFA) by subcutaneous injection at the tail base (0.1 mL of emulsion/mouse) under anesthesia. On the day of injection (Day 0) and 2 days later, mice receive an intraperitoneal injection of Pertussis Toxin (PT) in PBS at 600 ng/mouse/dose (0.1 mL).
Symptoms typically develop in mice 9-14 days after immunization (Day 0). Daily observation and scoring of mice start on Day 9 and continue until the end of the study. Table 5 details the expected clinical symptoms and the scoring criteria used in this study.
To evaluate the therapeutic effects of Compound 2, treatment was initiated after the first clinical symptoms were observed. […] Mice in all groups were monitored and scored daily for clinical symptoms.
At the end of the study, spleens were collected from a representative sample of mice from each group for splenocyte analysis. A single-cell suspension was prepared for cellular phenotyping by flow cytometry. Cells were stained and gated for CD4+ T-cells. Percent FoxP3+/CD4+ T-cells were evaluated by flow cytometry.

[3] = test system: FoxP3+/CD4+ T-cells (spleen); assay: Pharmacodynamics of a single ascending dose in mice, splenic T-cell phenotyping; format: in vivo; conditions: for percent of FoxP3+/CD4+ T-cells, mean: single dose, spleen five days after dose
Method: All animal studies were conducted under IACUC number B2020-91 and in compliance with Tufts University/Tufts Medical Center & Human Nutrition Research Center on Aging. Animals were housed 4 per cage and had access to food and water ad libitum. Compound 2 was formulated with 10% DMSO in PBS buffer.
This study was designed to evaluate the PD effects of a single dose of Compound 2 in mice. Animals were administered a single oral gavage, as per their group assignment. Five days after the oral dose, animals were sacrificed, and their spleens were collected for T-cell phenotyping. FIG. 2A is a schematic diagram of the study design.
For ex vivo analysis, spleens were collected for splenocyte analysis, and prepared into a single-cell suspension for cellular phenotyping by flow cytometry. Cells were stained and gated for CD4. Percent FoxP3+/CD4+ T-cells and percent FoxP3+/NRP1+ were evaluated using flow cytometry. For dose-response analysis, dose versus response was fitted to 4- and 5-parameters, log-logistic models using the “dre” package in “R”. Both EC50 and EC90 were obtained by model fitting.

passive MG model = assay: Passive myasthenia gravis model, adoptive transfer to RAG2−/− mice; format: in vivo; conditions: by day 10, SC daily for ten days
Method: In this passive MG model in B6 mice, donor mice (n=20, aged 6-8 weeks) were immunized with complete Freund's adjuvant (CFA) and nicotinic acetylcholine receptor (AChR) emulsion weekly for four weeks. Seven days after the last immunization, splenocytes were collected, and 10^6 cells/mouse were transferred to RAG2^−/− mice. The recipient mice (n=10/group) were treated one day after adoptive transfer with prednisone (1 μg/mouse) SC daily for ten days after disease onset or Compound 2 3 μg SC daily for ten days after disease onset, or were left untreated. Minimal manifestation of disease was defined as a return to a clinical score of 1 after an exacerbation (score 2 or higher). Time to return to minimal score was logged, and the likelihood of return was plotted for untreated animals, and standard of care (SOC; prednisone)- and Compound 2-treated animals.

[4] = test system: human B-cells (CD19+CD71+IgM+); assay: Regulatory B-cell induction in human PBMCs; format: cell-based; conditions: 10 ng/ml, five days
Method: 2×10^5 Total PBMCs or T-cell depleted PBMCs were cultured in a 96-well plate in the presence of ascending doses of Compound 2 ranging from 0 to 10 ng/ml for five days. At day 5, cells were washed and stained for CD19, CD71 and IgM for 30 minutes on ice, then cells were washed with PBS, and stained with viability dye to exclude dead cells.

[5] = test system: pristane-induced lupus model; assay: Pristane-induced lupus model; format: in vivo, mice; conditions: 3 μg SC daily, interim data
Method: Four-week old female Balb/c mice received 0.5 ml IP injection of pristane (Sigma Aldrich). Eight weeks post pristane injection, all mice tested positive for anti-dsDNA antibody titers (FUJIFILM Wako Pure Chemical Corporation), indicating systemic disease onset. On Day 60, mice were randomized to treatment (n=12) (Compound 2, 3 μg SC daily) or control group (n=11), and treatment was started. Mice were monitored daily for cutaneous lupus symptoms by checking for the appearance of skin lesions.

[6] = four-parameter dose-response model, single dose per mouse

In the case of N[C@@H](CNC(=O)Cc1ccc(OCc2cccc3ccccc23)cc1)C(=O)O [Compound 2, (S)-2-Amino-3-(2-(4-(naphthalen-1-ylmethoxy)phenyl)acetamido)propanoic acid], the “decrease in RORγt cells” value (Th17 (RORγt) cells) is reported as 80%, the “percentage of Th17, mean after treatment” value (Th17 (RORγt) cells) is reported as 1.1% and the potency on storage ([1]; 0.7 mg/ml oral solution, −20° C., 4° C. and room temperature) is reported as “Potency was maintained over a minimum period of three months at all storage conditions”. The “potency after storage and freeze-thaw cycles, LC/MS assay” value ([1]; 3-month storage and several freeze-thaw cycles) was “Potency was maintained”, the “clarity after three freeze-thaw cycles” value ([1]; oral solution, −20° C. to room temperature) was “No precipitation was observed, and all solutions maintained clarity” and the “disease control after switching from anti-alpha4 integrin” value ([2]; 10-μg oral dose following one or two injections of anti-alpha4 integrin) was “resulted in disease control after disease onset”. The “control of MS symptoms after disease onset versus glatiramer acetate” value ([2]; all doses and regimens) was “more effective than glatiramer acetate”, the “control of MS symptoms after disease onset versus anti-alpha4 integrin” value ([2]; daily 10-μg oral dose) was “as effective as a full regimen of anti-alpha4 integrin” and the “MS clinical score after disease onset” value ([2]; doses of Table 6, treatment from clinical score 1) was “reduced the MS clinical score after disease onset in a dose-dependent manner”. For the same molecule, the “ED50 for FoxP3+/CD4+ T-cells” value [3, 6] was 4.88 µg, the “ED90 for FoxP3+/CD4+ T-cells” value [3, 6] was 82.1 µg and the “increase of the number of FoxP3+/CD4+ T-cells (T-reg)” value ([3]; from the lowest dose to the highest dose group) was 150%. The “percent of FoxP3+/CD4+ T-cells, mean” value ([3]; highest dose group) was 25.4%, the “percent of FoxP3+/CD4+ T-cells, mean” value ([3]; lowest dose group) was 10.7% and the “animals returned to minimal manifestation of disease (score 1)” value (passive MG model) was 63%. For the same molecule, the “percentage of B-reg (CD19+CD71+IgM+)” value ([4]; T-cell depleted PBMCs) was 14.0%, the “percentage of B-reg (CD19+CD71+IgM+)” value ([4]; total PBMC cultures) was 17.5% and the “incidence of cutaneous lupus” value ([5]; after two weeks of treatment) was 8%. For the same molecule, the “onset of cutaneous symptoms compared to untreated control mice” value [5] was “delayed by two days”.
